Measured values taken from EP4603105A1, “PHARMACEUTICAL COMPOSITION CONTAINING CYCLIC COMPOUND HAVING SELECTIVE KRAS INHIBITORY EFFECT AGAINST HRAS AND NRAS” (CHUGAI SEIYAKU KABUSHIKI KAISHA, priority 2022, dated 2024).
*1 amine or outer side, *2 acyl side, *3 side chain or, on linkers, in order; H or OH if unused. Where a SMILES comes first, the peptide text is derived from it. Bridges are numbered along the chain shown (N, C = ends). [ ]: non-standard residue; d: D form. The star is where a group is joined. X25 = O=C([C@H](Cc1ccc(C(F)(F)F)cc1)N(CCC(F)(F)F)[*:1])[*:2]; hPhe(3-Cl-4-CF3) = N[C@@H](CCc1ccc(C(F)(F)F)c(Cl)c1)C(=O)O; NPrPhe(4-CF3) = CCCN[C@@H](Cc1ccc(C(F)(F)F)cc1)C(=O)O; Pip(4,4-F2) = O=C(O)[C@@H]1CC(F)(F)CCN1; NMeGly(cPent) = CN[C@H](C(=O)O)C1CCCC1; Pro(4,4-F2) = O=C(O)[C@@H]1CC(F)(F)CN1; Hyp = O=C(O)[C@@H]1C[C@@H](O)CN1; NMeD = CN[C@@H](CC(=O)O)C(=O)O; NMeL = CN[C@@H](CC(C)C)C(=O)O; Morpholide = C1CN(*)CCO1; NMeA = CN[C@@H](C)C(=O)O; Ac5c = NC1(C(=O)O)CCCC1; Aze = O=C(O)[C@@H]1CCN1; Ac4c = NC1(C(=O)O)CCC1; Sar = CNCC(=O)O

What was measured:
[1] = test system: human lung cancer strain NCI-H441; format: cell-based
Method in brief: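 Step one: dispense the test compound in serial DMSO dilutions. Step three: add the reagent and measure […].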

[2] = molecular target: GDP-bound NRAS wild-type protein (Homo sapiens, UniProt P01111); assay: Binding to NRAS by surface plasmon resonance (SPR), KD and KD ratio to KRAS
Method in brief: (§1)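 Biotinylated GDP-bound RAS was captured at about 100–300 RU. Running buffer: HBS pH 7.4, 10 mM MgCl2, 10 µM GDP, 1 mM DTT, 0.01% Tween 20, 4% DMSO.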

[3] = molecular target: HRAS wild-type protein (Homo sapiens, UniProt P01112); assay: Binding to HRAS by surface plasmon resonance (SPR), KD and KD ratio to KRAS
Method in brief: as §1

[4] = ratio of the KD value with respect to GDP-bound NRAS wild-type protein to the KD value with respect to KRAS
[5] = ratio of the KD value with respect to HRAS wild-type protein to the KD value with respect to KRAS
[6] = ratio of KD for GDP-bound NRAS wild-type protein to KD for KRAS
[7] = ratio of KD for HRAS wild-type protein to KD for KRAS

Chain of HRAS wild-type protein (P01112 whole entry): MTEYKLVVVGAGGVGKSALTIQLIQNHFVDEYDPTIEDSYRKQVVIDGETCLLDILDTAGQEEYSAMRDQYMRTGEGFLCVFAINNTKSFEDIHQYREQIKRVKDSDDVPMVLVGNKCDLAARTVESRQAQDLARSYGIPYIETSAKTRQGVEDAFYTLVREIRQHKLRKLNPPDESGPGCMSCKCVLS
Chain of GDP-bound NRAS wild-type protein (P01111 whole entry): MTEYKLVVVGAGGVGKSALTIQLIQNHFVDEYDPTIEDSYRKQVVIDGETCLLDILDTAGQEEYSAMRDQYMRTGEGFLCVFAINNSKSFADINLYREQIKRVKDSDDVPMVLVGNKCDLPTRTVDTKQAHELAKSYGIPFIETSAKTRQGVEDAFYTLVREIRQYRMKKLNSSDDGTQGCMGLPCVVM

Row | SMILES | IC50 [1] | NRAS /KRAS [2, 4] | HRAS /KRAS [3, 5] | NRAS /KRAS [2, 6] | HRAS /KRAS [3, 7] | NRAS /KRAS ([2]; ratio of KD value for GDP-bound NRAS wild-type protein to KD value for KRAS (SPR)) | HRAS /KRAS ([3]; ratio of KD value for HRAS wild-type protein to KD value for KRAS (SPR))
1 | CCCN1C(=O)[C@@H]2CCN2C(=O)[C@H](C)N(C)C(=O)[C@H]([C@@H](C)CC)NC(=O)[C@H](CC(C)C)N(C)C(=O)C[C@@H](C(=O)N2CCOCC2)N(C)C(=O)[C@H](C2CCCC2)N(C)C(=O)C2(CCC2)NC(=O)[C@@H]2C[C@@H](OCC)CN2C(=O)[C@H](CCc2ccc(C(F)(F)F)c(Cl)c2)NC(=O)CN(C)C(=O)[C@@H]1Cc1ccc(C(F)(F)F)cc1 [PP0406] ([NMeL]I[NMeA][Aze][NPrPhe(4-CF3)][Sar][hPhe(3-Cl-4-CF3)][Hyp](Et)[Ac4c][NMeGly(cPent)][NMeD]-Morpholide; lactam N-11) | 0.0025 µM | C (A compound having a KD ratio of 0.1 or more and less than 3 is denoted as C) | B (a compound having 3 or more and less than 10 is denoted as B) | – | – | – | –
2 | CCCN1C(=O)CN(C)C(=O)CNC(=O)[C@H]([C@@H](C)CC)NC(=O)[C@H](CC(C)C)N(C)C(=O)C[C@@H](C(=O)N(C)C)N(C)C(=O)[C@H](C2CCCC2)N(C)C(=O)C2(CCCC2)NC(=O)[C@@H]2C[C@@H](OCC)CN2C(=O)[C@H](CCc2ccc(C(F)(F)F)c(Cl)c2)NC(=O)CN(C)C(=O)[C@@H]1Cc1ccc(C(F)(F)F)cc1 [PP0421] ([NMeL]IG[Sar][NPrPhe(4-CF3)][Sar][hPhe(3-Cl-4-CF3)][Hyp](Et)[Ac5c][NMeGly(cPent)][NMeD]-NMe2; lactam N-11) | 0.002 µM | B (a compound having 3 or more and less than 10 is denoted as B) | C (A compound having a KD ratio of 0.1 or more and less than 3 is denoted as C) | – | – | – | –
3 | CCCN1C(=O)CN(C)C(=O)[C@@H]2CCN2C(=O)[C@H]([C@@H](C)CC)NC(=O)[C@H](CC(C)C)N(C)C(=O)C[C@@H](C(=O)N(C)C)N(C)C(=O)[C@H](C2CCCC2)N(C)C(=O)C2(CCC2)NC(=O)[C@@H]2CCCN2C(=O)[C@H](CCc2ccc(C(F)(F)F)c(Cl)c2)NC(=O)CN(C)C(=O)[C@@H]1Cc1ccc(C(F)(F)F)cc1 [PP0430] ([NMeL]I[Aze][Sar][NPrPhe(4-CF3)][Sar][hPhe(3-Cl-4-CF3)]P[Ac4c][NMeGly(cPent)][NMeD]-NMe2; lactam N-11) | 0.0279 µM | B (a compound having 3 or more and less than 10 is denoted as B) | B (a compound having 3 or more and less than 10 is denoted as B) | – | – | – | –
4 | CCCN1C(=O)CN(C)C(=O)CN(C)C(=O)[C@H]([C@@H](C)CC)NC(=O)[C@H](CC(C)C)N(C)C(=O)C[C@@H](C(=O)N(C)C)N(C)C(=O)[C@H](C2CCCC2)N(C)C(=O)C2(CCCC2)NC(=O)[C@@H]2CC(F)(F)CN2C(=O)[C@H](CCc2ccc(C(F)(F)F)c(Cl)c2)NC(=O)CN(C)C(=O)[C@@H]1Cc1ccc(C(F)(F)F)cc1 [PP0413] ([NMeL]I[Sar][Sar][NPrPhe(4-CF3)][Sar][hPhe(3-Cl-4-CF3)][Pro(4,4-F2)][Ac5c][NMeGly(cPent)][NMeD]-NMe2; lactam N-11) | 0.002 µM | C (A compound having a KD ratio of 0.1 or more and less than 3 is denoted as C) | C (A compound having a KD ratio of 0.1 or more and less than 3 is denoted as C) | – | – | – | –
5 | CCCN1C(=O)[C@@H]2CCN2C(=O)[C@H](C)N(C)C(=O)[C@H]([C@@H](C)CC)NC(=O)[C@H](CC(C)C)N(C)C(=O)C[C@@H](C(=O)N2CCOCC2)N(C)C(=O)[C@H](C2CCCC2)N(C)C(=O)C2(CCCC2)NC(=O)[C@@H]2CC(F)(F)CCN2C(=O)[C@H](CCc2ccc(C(F)(F)F)c(Cl)c2)NC(=O)CN(C)C(=O)[C@@H]1Cc1ccc(C(F)(F)F)cc1 [PP0285] ([NMeL]I[NMeA][Aze][NPrPhe(4-CF3)][Sar][hPhe(3-Cl-4-CF3)][Pip(4,4-F2)][Ac5c][NMeGly(cPent)][NMeD]-Morpholide; lactam N-11) | 0.0189 µM | – | – | C (A compound having a KD ratio of 0.1 or more and less than 3 is denoted as C) | B (a compound having 3 or more and less than 10 is denoted as B) | – | –
6 | CC[C@H](C)[C@@H]1NC(=O)[C@H](CC(C)C)N(C)C(=O)C[C@@H](C(=O)N2CCOCC2)N(C)C(=O)[C@H](C2CCCC2)N(C)C(=O)C2(CCCC2)NC(=O)[C@@H]2CCCN2C(=O)[C@H](CCc2ccc(C(F)(F)F)c(Cl)c2)NC(=O)CN(C)C(=O)[C@H](Cc2ccc(C(F)(F)F)cc2)N(CCC(F)(F)F)C(=O)CN(C)C(=O)CN(C)C1=O [PP0131] ([NMeL]I[Sar][Sar][X25][Sar][hPhe(3-Cl-4-CF3)]P[Ac5c][NMeGly(cPent)][NMeD]-Morpholide; lactam N-11) | 0.0111 µM | – | – | B (a compound having 3 or more and less than 10 is denoted as B) | C (A compound having a KD ratio of 0.1 or more and less than 3 is denoted as C) | – | –

The next lines start with results.

Row | IC50 [1] | SMILES | NRAS /KRAS [2, 4] | HRAS /KRAS [3, 5] | NRAS /KRAS [2, 6] | HRAS /KRAS [3, 7] | NRAS /KRAS ([2]; ratio of KD value for GDP-bound NRAS wild-type protein to KD value for KRAS (SPR)) | HRAS /KRAS ([3]; ratio of KD value for HRAS wild-type protein to KD value for KRAS (SPR))
7 | 0.0194 µM | CCO[C@@H]1C[C@H]2C(=O)NC3(CCC3)C(=O)N(C)[C@@H](C(C)(C)C)C(=O)N(C)[C@H](C(=O)N3CCOCC3)CC(=O)N(C)[C@@H](CC(C)C)C(=O)N[C@@H]([C@@H](C)CC)C(=O)N(C)CC(=O)N(C)[C@H]3CCCCN(C3=O)[C@@H](Cc3ccc(C(F)(F)F)cc3)C(=O)N(C)CC(=O)N[C@@H](CCc3cc(F)c(C(F)(F)F)c(F)c3)C(=O)N2C1 [PP0814] | – | – | B (a compound having 3 or more and less than 10 is denoted as B) | B (a compound having 3 or more and less than 10 is denoted as B) | – | –
8 | 0.0525 µM | CCO[C@@H]1C[C@H]2C(=O)NC3(CCC3)C(=O)N(C)[C@@H](C3CCCC3)C(=O)N(C)[C@H](C(=O)N(C)C)CC(=O)N(C)[C@@H](Cc3cccnc3)C(=O)N[C@@H]([C@@H](C)CC)C(=O)N(C)CC(=O)N(C)[C@H]3CCCCCN(C3=O)[C@@H](Cc3ccc(C(F)(F)F)cc3)C(=O)N(C)CC(=O)N[C@@H](CCc3cc(F)c(C(F)(F)F)c(F)c3)C(=O)N2C1 [PP0673] | B (a compound having 3 or more and less than 10 is denoted as B) | B (a compound having 3 or more and less than 10 is denoted as B) | – | – | – | –
9 | 0.252 µM | CC[C@H](C)[C@@H]1NC(=O)[C@H](CC(C)C)N(C)C(=O)C[C@@H](C(=O)N2CCOCC2)N(C)C(=O)[C@H](C2CCCC2)N(C)C(=O)C2(CCCC2)NC(=O)[C@@H]2CCCN2C(=O)[C@H](CCc2ccc(C(F)(F)F)c(Cl)c2)NC(=O)CN(C)C(=O)[C@H](Cc2ccc(Cl)cc2)N2C/C=C\CC[C@@H](C2=O)N(C)C(=O)CN(C)C1=O [PP0608] | C (A compound having a KD ratio of 0.1 or more and less than 3 is denoted as C) | B (a compound having 3 or more and less than 10 is denoted as B) | – | – | – | –
10 | 0.0081 µM | CCCN(C)C(=O)[C@@H]1CC(=O)N(C)[C@@H](C)C(=O)N[C@@H]([C@@H](C)CC)C(=O)N(C)CC(=O)N(C)[C@H]2C/C=C\CCN(C2=O)[C@@H](Cc2ccc(C(F)(F)F)cc2)C(=O)N(C)CC(=O)N[C@@H](CCc2cc(F)c(C(F)(F)F)c(F)c2)C(=O)N2C[C@H](OCC)C[C@H]2C(=O)NC2(CCC2)C(=O)N(C)[C@@H](C2CCCC2)C(=O)N1C [PP1666] | – | – | – | – | A (a compound having 10 or more and less than 20 is denoted as A) | A (a compound having 10 or more and less than 20 is denoted as A)
11 | 0.138 µM | CCO[C@@H]1C[C@H]2C(=O)NC3(CCC3)C(=O)N(C)[C@@H](C3CCCC3)C(=O)N(C)[C@H](C(=O)N(C)C)CC(=O)N(C)[C@@H](CC3CCCC3)C(=O)N[C@@H]([C@@H](C)CC)C(=O)N(C)CC(=O)N(C)[C@H]3C/C=C\CCN(C3=O)[C@@H](Cc3ccc(C)cc3)C(=O)N(C)CC(=O)N[C@@H](CCc3cc(C)c(C(F)F)c(C)c3)C(=O)N2C1 [PP2675] | – | – | A (a compound having 10 or more and less than 20 is denoted as A) | A (a compound having 10 or more and less than 20 is denoted as A) | – | –
12 | 0.0272 µM | CCO[C@@H]1CCN2C(=O)[C@H](CCc3cc(F)c(C(F)(F)F)c(F)c3)NC(=O)CN(C)C(=O)[C@H](Cc3ccc(C(F)(F)F)cc3)N3CCCC[C@@H](C3=O)N(C)C(=O)CN(C)C(=O)[C@H]([C@@H](C)CC)NC(=O)[C@H](CC(C)C)N(C)C(=O)C[C@@H](C(=O)N3CCOCC3)N(C)C(=O)[C@H](C3CCCC3)N(C)C(=O)C3(CCC3)NC(=O)[C@H]12 [PP1079] | – | – | B (a compound having 3 or more and less than 10 is denoted as B) | B (a compound having 3 or more and less than 10 is denoted as B) | – | –
13 | 0.0324 µM | CCC[C@H]1C(=O)N[C@@H]([C@@H](C)CC)C(=O)N(C2CC2)CC(=O)N(C)[C@H]2C/C=C\CCN(C2=O)[C@@H](Cc2ccc(C(F)(F)F)cc2)C(=O)N(C)CC(=O)N[C@@H](CCc2cc(F)c(C(F)(F)F)c(F)c2)C(=O)N2C[C@H](OCC)C[C@H]2C(=O)N(C)C2(CCC2)C(=O)N(C)[C@@H](C2CCCC2)C(=O)N(C)[C@H](C(=O)N2CCCC2)CC(=O)N1C [PP3112] | – | – | A (a compound having 10 or more and less than 20 is denoted as A) | B (a compound having 3 or more and less than 10 is denoted as B) | – | –
14 | 0.029 µM | CCO[C@@H]1C[C@H]2C(=O)NC3(CC(C)(C)C3)C(=O)N(C)[C@@H](C(CC)CC)C(=O)N(C)[C@H](C(=O)N3CCCC3)CC(=O)N(C)[C@@H](COC)C(=O)N[C@@H]([C@@H](C)CC)C(=O)N(C)CC(=O)N(C)[C@H]3C/C=C\CCN(C3=O)[C@@H](Cc3ccc(C)cc3)C(=O)N(C)CC(=O)N[C@@H](CCc3ccc(C(F)(F)F)c(Cl)c3)C(=O)N2C1 [PP2144] | AA (a compound having 20 or more is denoted as AA) | A (a compound having 10 or more and less than 20 is denoted as A) | – | – | – | –
